Data as given in patent US11098038B2, “Imidazole-based anticancer agents and derivatives thereof, and methods of making and using same” (The University of Toledo, priority 2017, dated 2021).

Tests used:
CCRF-CEM = assay: NCI 60 screen, CCRF-CEM; format: cell-based; conditions: Homo sapiens, Leukemia
Procedure: (§1) The compounds synthesized were tested at the National Cancer Institute (NCI) for anti-proliferative activity in the 60 human tumor cell line assay.

HL-60(TB) = assay: NCI 60 screen, HL-60(TB); format: cell-based; conditions: Homo sapiens, Leukemia
Procedure: as §1

K-562 = assay: NCI 60 screen, K-562; format: cell-based; conditions: Homo sapiens, K562, Leukemia
Procedure: as §1

MOLT-4 = assay: NCI 60 screen, MOLT-4; format: cell-based; conditions: Homo sapiens, Leukemia
Procedure: as §1

RPMI-8226 = assay: NCI 60 screen, RPMI-8226; format: cell-based; conditions: Homo sapiens, Leukemia
Procedure: as §1

SR = assay: NCI 60 screen, SR; format: cell-based; conditions: Homo sapiens, Leukemia
Procedure: as §1

A549/ATCC = assay: NCI 60 screen, A549/ATCC; format: cell-based; conditions: Homo sapiens, Non-Small Cell Lung
Procedure: as §1

EKVX = assay: NCI 60 screen, EKVX; format: cell-based; conditions: Homo sapiens, Non-Small Cell Lung
Procedure: as §1

HOP-62 = assay: NCI 60 screen, HOP-62; format: cell-based; conditions: Homo sapiens, Non-Small Cell Lung
Procedure: as §1

HOP-92 = assay: NCI 60 screen, HOP-92; format: cell-based; conditions: Homo sapiens, Non-Small Cell Lung
Procedure: as §1

NCI-H226 = assay: NCI 60 screen, NCI-H226; format: cell-based; conditions: Homo sapiens, Non-Small Cell Lung
Procedure: as §1

NCI-H23 = assay: NCI 60 screen, NCI-H23; format: cell-based; conditions: Homo sapiens, Non-Small Cell Lung
Procedure: as §1

NCI-322M = assay: NCI 60 screen, NCI-322M; format: cell-based; conditions: Homo sapiens, Non-Small Cell Lung
Procedure: as §1

NCI-460 = assay: NCI 60 screen, NCI-460; format: cell-based; conditions: Homo sapiens, Non-Small Cell Lung
Procedure: as §1

NCI-H522 = assay: NCI 60 screen, NCI-H522; format: cell-based; conditions: Homo sapiens, Non-Small Cell Lung
Procedure: as §1

COLO 205 = assay: NCI 60 screen, COLO 205; format: cell-based; conditions: Homo sapiens, Colon
Procedure: as §1

HCC-2998 = assay: NCI 60 screen, HCC-2998; format: cell-based; conditions: Homo sapiens, Colon
Procedure: as §1

HCT-116 = assay: NCI 60 screen, HCT-116; format: cell-based; conditions: Homo sapiens, Colon
Procedure: as §1

HCT15 = assay: NCI 60 screen, HCT15; format: cell-based; conditions: Homo sapiens, HCT-15, Colon
Procedure: as §1

HT29 = assay: NCI 60 screen, HT29; format: cell-based; conditions: Homo sapiens, HT-29, Colon
Procedure: as §1

KM12 = assay: NCI 60 screen, KM12; format: cell-based; conditions: Homo sapiens, Colon
Procedure: as §1

SW-620 = assay: NCI 60 screen, SW-620; format: cell-based; conditions: Homo sapiens, Colon
Procedure: as §1

SF-268 = assay: NCI 60 screen, SF-268; format: cell-based; conditions: Homo sapiens, CNS
Procedure: as §1

SF-295 = assay: NCI 60 screen, SF-295; format: cell-based; conditions: Homo sapiens, CNS
Procedure: as §1

SF-539 = assay: NCI 60 screen, SF-539; format: cell-based; conditions: Homo sapiens, CNS
Procedure: as §1

SNB-19 = assay: NCI 60 screen, SNB-19; format: cell-based; conditions: Homo sapiens, CNS
Procedure: as §1

SNB-75 = assay: NCI 60 screen, SNB-75; format: cell-based; conditions: Homo sapiens, CNS
Procedure: as §1

U251 = assay: NCI 60 screen, U251; format: cell-based; conditions: Homo sapiens, U-251, CNS
Procedure: as §1

LOX IMVI = assay: NCI 60 screen, LOX IMVI; format: cell-based; conditions: Homo sapiens, Melanoma
Procedure: as §1

MALME-3M = assay: NCI 60 screen, MALME-3M; format: cell-based; conditions: Homo sapiens, Melanoma
Procedure: as §1

M14 = assay: NCI 60 screen, M14; format: cell-based; conditions: Homo sapiens, Melanoma
Procedure: as §1

MDA-MB-435 = assay: NCI 60 screen, MDA-MB-435; format: cell-based; conditions: Homo sapiens, Melanoma
Procedure: as §1

SK-MEL-2 [1] = assay: NCI 60 screen, SK-MEL-2 (first line); format: cell-based; conditions: Homo sapiens; Melanoma, SK-MEL-2 (first of two lines so named, r37)
Procedure: as §1

SK-MEL-2 [2] = assay: NCI 60 screen, SK-MEL-2 (second line); format: cell-based; conditions: Homo sapiens; Melanoma, SK-MEL-2 (second of two lines so named, r38)
Procedure: as §1

SK-MEL-5 = assay: NCI 60 screen, SK-MEL-5; format: cell-based; conditions: Homo sapiens, Melanoma
Procedure: as §1

UACC-257 = assay: NCI 60 screen, UACC-257; format: cell-based; conditions: Homo sapiens, Melanoma
Procedure: as §1

UACC-62 = assay: NCI 60 screen, UACC-62; format: cell-based; conditions: Homo sapiens, Melanoma
Procedure: as §1

IGROV1 = assay: NCI 60 screen, IGROV1; format: cell-based; conditions: Homo sapiens, IGROV-1, Ovarian
Procedure: as §1

OVCAR-3 = assay: NCI 60 screen, OVCAR-3; format: cell-based; conditions: Homo sapiens, Ovarian
Procedure: as §1

OVCAR-4 = assay: NCI 60 screen, OVCAR-4; format: cell-based; conditions: Homo sapiens, Ovarian
Procedure: as §1

OVCAR-5 = assay: NCI 60 screen, OVCAR-5; format: cell-based; conditions: Homo sapiens, Ovarian
Procedure: as §1

OVCAR-8 = assay: NCI 60 screen, OVCAR-8; format: cell-based; conditions: Homo sapiens, Ovarian
Procedure: as §1

NCI/ADR-RES = assay: NCI 60 screen, NCI/ADR-RES; format: cell-based; conditions: Homo sapiens, Ovarian
Procedure: as §1

SK-OV-3 = assay: NCI 60 screen, SK-OV-3; format: cell-based; conditions: Homo sapiens, Ovarian
Procedure: as §1

786-0 = assay: NCI 60 screen, 786-0; format: cell-based; conditions: Homo sapiens, Renal
Procedure: as §1

A498 = assay: NCI 60 screen, A498; format: cell-based; conditions: Homo sapiens, Renal
Procedure: as §1

ACHN = assay: NCI 60 screen, ACHN; format: cell-based; conditions: Homo sapiens, Renal
Procedure: as §1

CAKI-1 = assay: NCI 60 screen, CAKI-1; format: cell-based; conditions: Homo sapiens, Renal
Procedure: as §1

RXF393 = assay: NCI 60 screen, RXF393; format: cell-based; conditions: Homo sapiens, RXF 393, Renal
Procedure: as §1

SN12C = assay: NCI 60 screen, SN12C; format: cell-based; conditions: Homo sapiens, Renal
Procedure: as §1

TK-10 = assay: NCI 60 screen, TK-10; format: cell-based; conditions: Homo sapiens, Renal
Procedure: as §1

UO-31 = assay: NCI 60 screen, UO-31; format: cell-based; conditions: Homo sapiens, Renal
Procedure: as §1

PC-3 = assay: NCI 60 screen, PC-3; format: cell-based; conditions: Homo sapiens, Prostatic
Procedure: as §1

DU-145 = assay: NCI 60 screen, DU-145; format: cell-based; conditions: Homo sapiens, Prostatic
Procedure: as §1

MCF7 = assay: NCI 60 screen, MCF7; format: cell-based; conditions: Homo sapiens, Breast
Procedure: as §1

MDA-MB-231/ATCC = assay: NCI 60 screen, MDA-MB-231/ATCC; format: cell-based; conditions: Homo sapiens, Breast
Procedure: as §1

HS 578T = assay: NCI 60 screen, HS 578T; format: cell-based; conditions: Homo sapiens, Breast
Procedure: as §1

BT-549 = assay: NCI 60 screen, BT-549; format: cell-based; conditions: Homo sapiens, Breast
Procedure: as §1

T-47D = assay: NCI 60 screen, T-47D; format: cell-based; conditions: Homo sapiens, T47D, Breast
Procedure: as §1

MDA-MB-468 = assay: NCI 60 screen, MDA-MB-468; format: cell-based; conditions: Homo sapiens, Breast
Procedure: as §1

O=C(Cc1ccc(/C=C/C(=O)c2ncc[nH]2)cc1)Nc1ccc(C(F)(F)F)cc1 [Compound 24, (E)-2-(4-(3-(1H-imidazole-2-yl)-3-oxoprop-1-en-1-yl)phenyl)-N-(4-(trifluoromethyl)phenyl) acetamide]
GI50 (CCRF-CEM): 1550 nM
GI50 (HL-60(TB)): 2030 nM
GI50 (K-562): 1240 nM
GI50 (MOLT-4): 2.29 µM
GI50 (RPMI-8226): 780 nM
GI50 (SR): 843 nM
GI50 (A549/ATCC): 6.37 µM
GI50 (EKVX): 5.57 µM
GI50 (HOP-62): 4.8 µM
GI50 (HOP-92): 4.89 µM
GI50 (NCI-H226): 6.11 µM
GI50 (NCI-H23): 3.42 µM
GI50 (NCI-322M): 4.68 µM
GI50 (NCI-460): 3600 nM
GI50 (NCI-H522): 4.87 µM
GI50 (COLO 205): 5.38 µM
GI50 (HCC-2998): 3.97 µM
GI50 (HCT-116): 694 nM
GI50 (HCT15): 1040 nM
GI50 (HT29): 1090 nM
GI50 (KM12): 1110 nM
GI50 (SW-620): 1350 nM
GI50 (SF-268): 3.05 µM
GI50 (SF-295): 4.08 µM
GI50 (SF-539): 4.52 µM
GI50 (SNB-19): 2790 nM
GI50 (SNB-75): 3.97 µM
GI50 (U251): 1220 nM
GI50 (LOX IMVI): 469 nM
GI50 (MALME-3M): 5.18 µM
GI50 (M14): 2.58 µM
GI50 (MDA-MB-435): 2.87 µM
GI50 (SK-MEL-2 [1]): 7.09 µM
GI50 (SK-MEL-2 [2]): 5.32 µM
GI50 (SK-MEL-5): 5.55 µM
GI50 (UACC-257): 7.2 µM
GI50 (UACC-62): 4.47 µM
GI50 (IGROV1): 3840 nM
GI50 (OVCAR-3): 1090 nM
GI50 (OVCAR-4): 5.12 µM
GI50 (OVCAR-5): 4.89 µM
GI50 (OVCAR-8): 7.99 µM
GI50 (NCI/ADR-RES): 8.96 µM
GI50 (SK-OV-3): 7.66 µM
GI50 (786-0): 1400 nM
GI50 (A498): 4.73 µM
GI50 (ACHN): 6.33 µM
GI50 (CAKI-1): 4.43 µM
GI50 (RXF393): 3.75 µM
GI50 (SN12C): 1870 nM
GI50 (TK-10): 6.63 µM
GI50 (UO-31): 2430 nM
GI50 (PC-3): 2.81 µM
GI50 (DU-145): 2130 nM
GI50 (MCF7): 851 nM
GI50 (MDA-MB-231/ATCC): 2790 nM
GI50 (HS 578T): 5.88 µM
GI50 (BT-549): 2110 nM
GI50 (T-47D): 3.97 µM
GI50 (MDA-MB-468): 1770 nM
melting point: 240.5 °C

Cn1ccnc1C(=O)/C=C/c1ccc(CC(=O)Nc2ccccc2)cc1 [Compound 27, (E)-2-(4-(3-(1-methyl-1H-imidazol-2-yl)-3-oxoprop-1-en-1-yl)phenyl)-N-phenylacetamide]
GI50 (CCRF-CEM): 2370 nM
GI50 (HL-60(TB)): 1570 nM
GI50 (K-562): 1070 nM
GI50 (MOLT-4): 4.3 µM
GI50 (RPMI-8226): 1450 nM
GI50 (SR): 1160 nM
GI50 (A549/ATCC): 6.6 µM
GI50 (EKVX): 6.28 µM
GI50 (HOP-62): 3.75 µM
GI50 (HOP-92): 6.63 µM
GI50 (NCI-H226): 8.59 µM
GI50 (NCI-H23): 3.24 µM
GI50 (NCI-322M): 2.57 µM
GI50 (NCI-460): 2320 nM
GI50 (NCI-H522): 3.2 µM
GI50 (COLO 205): 3.77 µM
GI50 (HCC-2998): 4.42 µM
GI50 (HCT-116): 1680 nM
GI50 (HCT15): 1250 nM
GI50 (HT29): 2400 nM
GI50 (KM12): 3390 nM
GI50 (SW-620): 2750 nM
GI50 (SF-268): 3.75 µM
GI50 (SF-295): 5.44 µM
GI50 (SF-539): 2.43 µM
GI50 (SNB-19): 1900 nM
GI50 (SNB-75): 25 µM
GI50 (U251): 1570 nM
GI50 (LOX IMVI): 1030 nM
GI50 (MALME-3M): 5.93 µM
GI50 (M14): 4.55 µM
GI50 (MDA-MB-435): 4.3 µM
GI50 (SK-MEL-2 [1]): 5.06 µM
GI50 (SK-MEL-2 [2]): 5.69 µM
GI50 (SK-MEL-5): 4.18 µM
GI50 (UACC-257): 6.98 µM
GI50 (UACC-62): 4.13 µM
GI50 (IGROV1): 2110 nM
GI50 (OVCAR-3): 1870 nM
GI50 (OVCAR-4): 4.12 µM
GI50 (OVCAR-5): 4.19 µM
GI50 (OVCAR-8): 6.44 µM
GI50 (NCI/ADR-RES): 7.54 µM
GI50 (SK-OV-3): 9.3 µM
GI50 (786-0): 2670 nM
GI50 (A498): 6.08 µM
GI50 (ACHN): 5.24 µM
GI50 (RXF393): 3.86 µM
GI50 (SN12C): 3840 nM
GI50 (TK-10): 7.44 µM
GI50 (UO-31): 2770 nM
GI50 (PC-3): 3.29 µM
GI50 (DU-145): 1100 nM
GI50 (MCF7): 1130 nM
GI50 (MDA-MB-231/ATCC): 2370 nM
GI50 (HS 578T): 1.42 µM
GI50 (BT-549): 2950 nM
GI50 (T-47D): 5.23 µM
GI50 (MDA-MB-468): 1710 nM
melting point: 184 to 186 °C
